Experimental data reported in patent US20260262643A1, “HERBICIDAL BENZOXAZINES” (FMC CORPORATION, priority 2022, published 2026).

What was measured:
barnyardgrass [1] = assay: Test C preemergence; type: in vivo, Echinochloa crusgalli; details: Preemergence, 1000 g ai/ha; visual rating after 10 days, 0 to 100 scale (0 no effect, 100 complete control)
From the text: (§1) Seeds of plant species selected from barnyardgrass (Echinochloa crusgalli), blackgrass (Alopecurus myosuroides), corn (Zea mays), foxtail, giant (giant foxtail, Setaria faberi), green foxtail (Setaria viridis), goosegrass (Eleusine indica), kochia (Bassia scoparia), oat, wild (wild oat, Avena fatua), pigweed, palmer (palmer amaranth, palmer pigweed, Amaranthus palmeri), Pigweed, Redroot (redroot pigweed, Amaranthus retroflexus), ragweed (common ragweed, Ambrosia artemisiifolia), ryegrass, Italian ([…] ryegrass, Lolium multiflorum), soybean (Glycine max), and wheat (Triticum aestivum) were planted into a blend of loam soil and sand and treated preemergence with a directed soil spray using test chemicals formulated in a non-phytotoxic solvent mixture which included a surfactant. At the same time, plants selected from these crops and weed species and also galium (catchweed bedstraw, Galium aparine) and horseweed (Erigeron canadensis) were planted in pots containing the same blend of loam soil and sand and treated with postemergence applications of test chemicals formulated in the same manner. Plants ranged in height from 2 to 10 cm and were in the one- to two-leaf stage for the postemergence treatment. Treated plants and untreated controls were maintained in a greenhouse for 10 days, after which time all treated plants were compared to untreated controls and visually evaluated for injury. Plant response ratings, summarized in Table C, are based on a 0 to 100 scale where 0 is no effect and 100 is complete control. A dash (-) response means no test result.

blackgrass [2] = assay: Test C preemergence; type: in vivo, Alopecurus myosuroides; details: Preemergence, 1000 g ai/ha; visual rating after 10 days, 0 to 100 scale (0 no effect, 100 complete control)
From the text: as §1

green foxtail [3] = assay: Test C preemergence; type: in vivo, Setaria viridis; details: Preemergence, 1000 g ai/ha; visual rating after 10 days, 0 to 100 scale (0 no effect, 100 complete control)
From the text: as §1

kochia [4] = assay: Test C preemergence; type: in vivo, Bassia scoparia; details: Preemergence, 1000 g ai/ha; visual rating after 10 days, 0 to 100 scale (0 no effect, 100 complete control)
From the text: as §1

pigweed, palmer [5] = assay: Test C preemergence; type: in vivo, Amaranthus palmeri; details: Preemergence, 1000 g ai/ha; visual rating after 10 days, 0 to 100 scale (0 no effect, 100 complete control)
From the text: as §1

ragweed [6] = assay: Test C preemergence; type: in vivo, Ambrosia artemisiifolia; details: Preemergence, 1000 g ai/ha; visual rating after 10 days, 0 to 100 scale (0 no effect, 100 complete control)
From the text: as §1

ryegrass, Italian [7] = assay: Test C preemergence; type: in vivo, Lolium multiflorum; details: Preemergence, 1000 g ai/ha; visual rating after 10 days, 0 to 100 scale (0 no effect, 100 complete control)
From the text: as §1

barnyardgrass [8] = assay: Test C postemergence; type: in vivo, Echinochloa crusgalli; details: Postemergence, 1000 g ai/ha
From the text: as §1

blackgrass [9] = assay: Test C postemergence; type: in vivo, Alopecurus myosuroides; details: Postemergence, 1000 g ai/ha, 10 days, visual 0 to 100 scale (0 no effect, 100 complete control)
From the text: as §1

green foxtail [10] = assay: Test C postemergence; type: in vivo, Setaria viridis; details: Postemergence, 1000 g ai/ha, 10 days, visual 0 to 100 scale (0 no effect, 100 complete control)
From the text: as §1

kochia [11] = assay: Test C postemergence; type: in vivo, Bassia scoparia; details: Postemergence, 1000 g ai/ha, 10 days, visual 0 to 100 scale (0 no effect, 100 complete control)
From the text: as §1

pigweed, palmer [12] = assay: Test C postemergence; type: in vivo, Amaranthus palmeri; details: Postemergence, 1000 g ai/ha, 10 days, visual 0 to 100 scale (0 no effect, 100 complete control)
From the text: as §1

ragweed [13] = assay: Test C postemergence; type: in vivo, Ambrosia artemisiifolia; details: Postemergence, 1000 g ai/ha, 10 days, visual 0 to 100 scale (0 no effect, 100 complete control)
From the text: as §1

ryegrass, Italian [14] = assay: Test C postemergence; type: in vivo, Lolium multiflorum; details: Postemergence, 1000 g ai/ha, 10 days, visual 0 to 100 scale (0 no effect, 100 complete control)
From the text: as §1

galium = assay: Test C postemergence; type: in vivo, Galium aparine; details: Postemergence, 1000 g ai/ha, 10 days, visual 0 to 100 scale (0 no effect, 100 complete control)
From the text: as §1

horseweed = assay: Test C postemergence; type: in vivo, Erigeron canadensis; details: Postemergence, 1000 g ai/ha, 10 days, visual 0 to 100 scale (0 no effect, 100 complete control)
From the text: as §1

[15] = 0 to 100 scale, 0 no effect, 100 complete control
[16] = 10 days, visual 0 to 100 scale (0 no effect, 100 complete control)

## Cc1ccn(-c2cccc(C(=O)N3C[C@H](C)Oc4c(Cl)cccc43)c2)n1 [Compound 206]
Barnyardgrass [1]
  Plant response rating, Barnyardgrass: 30
Blackgrass [2]
  Plant response rating, Blackgrass: 0
Green foxtail [3]
  Plant response rating, Foxtail, Green: 20
Kochia [4]
  Plant response rating, Kochia: 10
pigweed, palmer [5]
  Plant response rating, Pigweed, Palmer: 30
Ragweed [6]
  Plant response rating, Ragweed: 0
ryegrass, Italian [7]
  Plant response rating, Ryegrass, Italian: 80
Barnyardgrass [8]; [15]
  Plant response rating, Barnyardgrass: 0
Blackgrass [9]
  Plant response rating, Blackgrass: 0
Green foxtail [10]
  Plant response rating, Foxtail, Green: 0
Kochia [11]
  Plant response rating, Kochia: 20
pigweed, palmer [12]
  Plant response rating, Pigweed, Palmer: 50
Ragweed [13]
  Plant response rating, Ragweed: 0
ryegrass, Italian [14]
  Plant response rating, Ryegrass, Italian: 40
galium
  Plant response rating, Galium: 40
horseweed
  Plant response rating, Horseweed: 0

## Cc1cc(-c2cccc(C(=O)N3C[C@H](C)Oc4c(C)cccc43)c2)cnn1 [Compound 209]
Barnyardgrass [1]
  Plant response rating, Barnyardgrass: 0
Blackgrass [2]
  Plant response rating, Blackgrass: 0
Green foxtail [3]
  Plant response rating, Foxtail, Green: 0
Kochia [4]
  Plant response rating, Kochia: 0
pigweed, palmer [5]
  Plant response rating, Pigweed, Palmer: 0
Ragweed [6]
  Plant response rating, Ragweed: 0
ryegrass, Italian [7]
  Plant response rating, Ryegrass, Italian: 30
Barnyardgrass [8]; [15]
  Plant response rating, Barnyardgrass: 0
Blackgrass [9]
  Plant response rating, Blackgrass: 0
Green foxtail [10]
  Plant response rating, Foxtail, Green: 0
Kochia [11]
  Plant response rating, Kochia: 0
pigweed, palmer [12]
  Plant response rating, Pigweed, Palmer: 0
Ragweed [13]
  Plant response rating, Ragweed: 0
ryegrass, Italian [14]
  Plant response rating, Ryegrass, Italian: 0
galium
  Plant response rating, Galium: 40
horseweed
  Plant response rating, Horseweed: 20

## Cc1cnc(-c2cccc(C(=O)N3C[C@H](C)Oc4c(C)cccc43)c2)s1 [Compound 243]
Barnyardgrass [1]
  Plant response rating, Barnyardgrass: 60
Blackgrass [2]
  Plant response rating, Blackgrass: 0
Green foxtail [3]
  Plant response rating, Foxtail, Green: 70
Kochia [4]
  Plant response rating, Kochia: 0
pigweed, palmer [5]
  Plant response rating, Pigweed, Palmer: 0
Ragweed [6]
  Plant response rating, Ragweed: 30
ryegrass, Italian [7]
  Plant response rating, Ryegrass, Italian: 70
Barnyardgrass [8]; [15]
  Plant response rating, Barnyardgrass: 10
Blackgrass [9]
  Plant response rating, Blackgrass: 0
Green foxtail [10]
  Plant response rating, Foxtail, Green: 0
Kochia [11]
  Plant response rating, Kochia: 10
pigweed, palmer [12]
  Plant response rating, Pigweed, Palmer: 60
Ragweed [13]
  Plant response rating, Ragweed: 0
ryegrass, Italian [14]
  Plant response rating, Ryegrass, Italian: 50
galium
  Plant response rating, Galium: 60
horseweed
  Plant response rating, Horseweed: 40

## Cc1ccc(-c2cccc(C(=O)N3C[C@H](C)Oc4c(C)cccc43)c2)s1 [Compound 244]
Barnyardgrass [1]
  Plant response rating, Barnyardgrass: 50
Blackgrass [2]
  Plant response rating, Blackgrass: 0
Green foxtail [3]
  Plant response rating, Foxtail, Green: 50
Kochia [4]
  Plant response rating, Kochia: 0
pigweed, palmer [5]
  Plant response rating, Pigweed, Palmer: 0
Ragweed [6]
  Plant response rating, Ragweed: 50
ryegrass, Italian [7]
  Plant response rating, Ryegrass, Italian: 90
Barnyardgrass [8]; [15]
  Plant response rating, Barnyardgrass: 20
Blackgrass [9]
  Plant response rating, Blackgrass: 20
Green foxtail [10]
  Plant response rating, Foxtail, Green: 20
Kochia [11]
  Plant response rating, Kochia: 50
pigweed, palmer [12]
  Plant response rating, Pigweed, Palmer: 60
Ragweed [13]
  Plant response rating, Ragweed: 20
ryegrass, Italian [14]
  Plant response rating, Ryegrass, Italian: 80
galium
  Plant response rating, Galium: 60
horseweed
  Plant response rating, Horseweed: 90

## C[C@H]1CN(C(=O)c2cccc(-c3cn(C)cn3)c2)c2cccc(Cl)c2O1 [Compound 293]
Barnyardgrass [1]
  Plant response rating, Barnyardgrass: 0
Blackgrass [2]
  Plant response rating, Blackgrass: 0
Green foxtail [3]
  Plant response rating, Foxtail, Green: 0
Kochia [4]
  Plant response rating, Kochia: 0
pigweed, palmer [5]
  Plant response rating, Pigweed, Palmer: 10
Ragweed [6]
  Plant response rating, Ragweed: 0
ryegrass, Italian [7]
  Plant response rating, Ryegrass, Italian: 0
Barnyardgrass [8]; [16]
  Plant response rating, Barnyardgrass: 0
Blackgrass [9]
  Plant response rating, Blackgrass: 0
Green foxtail [10]
  Plant response rating, Foxtail, Green: 0
Kochia [11]
  Plant response rating, Kochia: 0
pigweed, palmer [12]
  Plant response rating, Pigweed, Palmer: 10
Ragweed [13]
  Plant response rating, Ragweed: 0
ryegrass, Italian [14]
  Plant response rating, Ryegrass, Italian: 0
galium
  Plant response rating, Galium: 0
horseweed
  Plant response rating, Horseweed: 30

## Cc1cccc2c1O[C@@H](C)CN2C(=O)c1cccc(-n2cncc2Br)c1 [Compound 297]
Barnyardgrass [1]
  Plant response rating, Barnyardgrass: 0
Blackgrass [2]
  Plant response rating, Blackgrass: 0
Green foxtail [3]
  Plant response rating, Foxtail, Green: 0
Kochia [4]
  Plant response rating, Kochia: 0
pigweed, palmer [5]
  Plant response rating, Pigweed, Palmer: 0
Ragweed [6]
  Plant response rating, Ragweed: 0
ryegrass, Italian [7]
  Plant response rating, Ryegrass, Italian: 0
Barnyardgrass [8]; [16]
  Plant response rating, Barnyardgrass: 0
Blackgrass [9]
  Plant response rating, Blackgrass: 0
Green foxtail [10]
  Plant response rating, Foxtail, Green: 0
Kochia [11]
  Plant response rating, Kochia: 30
pigweed, palmer [12]
  Plant response rating, Pigweed, Palmer: 0
Ragweed [13]
  Plant response rating, Ragweed: 0
ryegrass, Italian [14]
  Plant response rating, Ryegrass, Italian: 0
galium
  Plant response rating, Galium: 0
horseweed
  Plant response rating, Horseweed: 20
